Results from ChEMBL document CHEMBL5463723, “Data for DCP probe BIBO3304” (2023).

Assays:
[1] = molecular target: Metabotropic glutamate receptor (Rattus norvegicus) (UniProt P31424+P70579+P31423+P31421+P31422+P35349+P35400+P23385); test: Activity against GLUTAMAT/R in the Eurofins Panlabs screen (BI) by Radioactive Assay; type: protein assay; conditions: Compound concentration 10.0 uM
[2] = molecular target: Mu-type opioid receptor (Homo sapiens) (UniProt P35372); test: mu (MOP) Eurofins-Cerep binding assay; set-up: ligand concentration 0.5 nM; conditions: Compound concentration 10.0 uM
Sequence of Mu-type opioid receptor (Homo sapiens) (P35372 whole entry): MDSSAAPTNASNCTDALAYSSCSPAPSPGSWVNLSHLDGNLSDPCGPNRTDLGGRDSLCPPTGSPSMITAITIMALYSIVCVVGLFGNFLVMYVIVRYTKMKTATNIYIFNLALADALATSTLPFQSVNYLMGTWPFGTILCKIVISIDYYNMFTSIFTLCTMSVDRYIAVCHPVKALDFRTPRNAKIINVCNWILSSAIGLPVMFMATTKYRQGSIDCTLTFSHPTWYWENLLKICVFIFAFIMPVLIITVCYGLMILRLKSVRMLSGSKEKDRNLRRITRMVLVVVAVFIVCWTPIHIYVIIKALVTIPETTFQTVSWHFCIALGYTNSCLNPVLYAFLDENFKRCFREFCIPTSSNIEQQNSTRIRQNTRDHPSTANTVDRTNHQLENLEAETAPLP

[3] = molecular target: Platelet-activating factor receptor (Oryctolagus cuniculus) (UniProt G1TEI7); test: Activity against PAF/RB in the Eurofins Panlabs screen (BI) by Radioactive Assay; conditions: Compound concentration 10.0 uM
[4] = molecular target: Interleukin-6 receptor subunit alpha (Homo sapiens) (UniProt P08887); test: Activity against IL-6/H in the Eurofins Panlabs screen (BI) by SPA - blue shifted; conditions: Compound concentration 10.0 uM
Sequence of Interleukin-6 receptor subunit alpha (Homo sapiens) (P08887 whole entry): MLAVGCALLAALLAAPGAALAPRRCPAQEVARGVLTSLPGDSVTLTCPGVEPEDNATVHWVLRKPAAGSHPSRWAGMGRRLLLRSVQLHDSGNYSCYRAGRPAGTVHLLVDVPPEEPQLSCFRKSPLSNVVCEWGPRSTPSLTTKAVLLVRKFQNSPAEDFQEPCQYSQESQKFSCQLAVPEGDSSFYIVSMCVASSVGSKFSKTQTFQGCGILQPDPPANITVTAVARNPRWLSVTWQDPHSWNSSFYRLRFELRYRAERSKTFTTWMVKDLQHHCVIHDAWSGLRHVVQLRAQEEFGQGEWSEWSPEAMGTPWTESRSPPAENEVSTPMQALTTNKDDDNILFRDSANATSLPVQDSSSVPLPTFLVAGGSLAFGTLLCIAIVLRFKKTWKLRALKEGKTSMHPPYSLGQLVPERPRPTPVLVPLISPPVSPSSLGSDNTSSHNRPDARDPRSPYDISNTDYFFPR

[5] = molecular target: D(2) dopamine receptor (Homo sapiens) (UniProt P14416); test: Agonist activity in the Eurofins Cerep SafetyScreen44 (BI) against D2SH_AGON by Scintillation counting (Cerep_1322); conditions: Compound concentration 10.0 uM
[6] = molecular target: D(1A) dopamine receptor (Homo sapiens) (UniProt P21728); test: Activity against D1/HU in the Eurofins Panlabs screen (BI) by Radioactive Assay; conditions: Compound concentration 10.0 uM
Sequence of D(1A) dopamine receptor (Homo sapiens) (P21728 whole entry): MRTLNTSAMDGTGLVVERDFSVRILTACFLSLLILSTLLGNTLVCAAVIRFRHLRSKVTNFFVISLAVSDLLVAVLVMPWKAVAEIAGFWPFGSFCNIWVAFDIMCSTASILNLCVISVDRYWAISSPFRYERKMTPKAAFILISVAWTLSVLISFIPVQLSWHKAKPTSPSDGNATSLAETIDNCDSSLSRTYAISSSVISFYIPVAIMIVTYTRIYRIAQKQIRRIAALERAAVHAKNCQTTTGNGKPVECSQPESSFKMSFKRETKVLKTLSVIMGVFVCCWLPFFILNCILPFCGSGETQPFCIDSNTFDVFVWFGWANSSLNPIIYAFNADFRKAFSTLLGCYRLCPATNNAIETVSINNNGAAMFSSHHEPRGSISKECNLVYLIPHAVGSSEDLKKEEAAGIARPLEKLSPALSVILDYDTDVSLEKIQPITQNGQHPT

[7] = molecular target: cGMP-inhibited 3',5'-cyclic phosphodiesterase 3A (Homo sapiens) (UniProt Q14432); test: Inhibitor of PDE3A in the Eurofins Cerep SafetyScreen44 (BI) by HTRF-homogeneous time resolved fluoresce (Cerep_4072); conditions: Compound concentration 10.0 uM
[8] = molecular target: Cannabinoid receptor 1 (Homo sapiens) (UniProt P21554); test: CB1 Eurofins-Cerep binding assay; conditions: Compound concentration 10.0 uM
[9] = molecular target: Neprilysin (Homo sapiens) (UniProt P08473); test: Activity against NEUTRALENDOP in the Eurofins Panlabs screen (BI) by absorption of electromagnetic radiation; conditions: Compound concentration 10.0 uM
[10] = molecular target: Protein kinase C alpha type (Homo sapiens) (UniProt P17252); test: Inhibitor of PKCALPHA in the Eurofins Panlabs screen (BI) by Radioactive Assay; conditions: Compound concentration 10.0 uM
[11] = molecular target: Histamine H2 receptor (Homo sapiens) (UniProt P25021); test: H2 Eurofins-Cerep binding assay; set-up: ligand concentration 0.075 nM; conditions: Compound concentration 10.0 uM
[12] = molecular target: Glutamate receptor 1 (Rattus norvegicus) (UniProt P19490); test: Activity against AMPA/RA in the Eurofins Panlabs screen (BI); conditions: Compound concentration 10.0 uM
Sequence of Glutamate receptor 1 (Rattus norvegicus) (P19490 whole entry): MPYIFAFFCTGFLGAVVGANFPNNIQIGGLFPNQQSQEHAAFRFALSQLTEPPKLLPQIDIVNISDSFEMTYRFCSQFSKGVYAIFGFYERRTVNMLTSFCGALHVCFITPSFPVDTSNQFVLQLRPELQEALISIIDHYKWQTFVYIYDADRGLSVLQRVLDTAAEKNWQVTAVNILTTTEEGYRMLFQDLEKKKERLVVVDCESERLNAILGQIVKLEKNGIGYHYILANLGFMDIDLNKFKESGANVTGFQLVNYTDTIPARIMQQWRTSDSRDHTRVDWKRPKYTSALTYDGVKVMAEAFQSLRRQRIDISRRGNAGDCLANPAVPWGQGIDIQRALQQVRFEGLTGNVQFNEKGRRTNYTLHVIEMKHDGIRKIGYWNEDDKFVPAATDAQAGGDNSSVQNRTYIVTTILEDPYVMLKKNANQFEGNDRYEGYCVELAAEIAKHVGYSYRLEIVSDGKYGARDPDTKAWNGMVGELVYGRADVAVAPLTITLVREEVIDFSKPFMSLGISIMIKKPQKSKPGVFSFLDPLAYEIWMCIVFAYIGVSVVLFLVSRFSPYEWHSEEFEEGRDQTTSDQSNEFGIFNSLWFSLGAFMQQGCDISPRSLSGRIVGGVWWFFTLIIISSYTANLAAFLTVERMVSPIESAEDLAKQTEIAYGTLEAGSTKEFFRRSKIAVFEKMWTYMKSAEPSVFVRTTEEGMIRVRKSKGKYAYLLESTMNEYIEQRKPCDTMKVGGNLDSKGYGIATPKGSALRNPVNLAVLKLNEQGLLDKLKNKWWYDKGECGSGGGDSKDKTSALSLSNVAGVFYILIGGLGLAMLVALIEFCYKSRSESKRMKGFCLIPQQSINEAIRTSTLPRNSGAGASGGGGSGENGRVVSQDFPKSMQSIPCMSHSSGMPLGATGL

[13] = molecular target: Glucocorticoid receptor (Homo sapiens) (UniProt P04150); test: GR Eurofins-Cerep binding assay; conditions: Compound concentration 10.0 uM
[14] = molecular target: Alpha-1A adrenergic receptor (Homo sapiens) (UniProt P35348); test: Agonist activity in the Eurofins Cerep SafetyScreen44 (BI) against ALPHA1AH_ANTAG by Scintillation counting (Cerep_2338); conditions: Compound concentration 10.0 uM
[15] = molecular target: Beta-2 adrenergic receptor (Homo sapiens) (UniProt P07550); test: beta 2 Eurofins-Cerep binding assay; conditions: Compound concentration 10.0 uM
Sequence of Beta-2 adrenergic receptor (Homo sapiens) (P07550 whole entry, looked up): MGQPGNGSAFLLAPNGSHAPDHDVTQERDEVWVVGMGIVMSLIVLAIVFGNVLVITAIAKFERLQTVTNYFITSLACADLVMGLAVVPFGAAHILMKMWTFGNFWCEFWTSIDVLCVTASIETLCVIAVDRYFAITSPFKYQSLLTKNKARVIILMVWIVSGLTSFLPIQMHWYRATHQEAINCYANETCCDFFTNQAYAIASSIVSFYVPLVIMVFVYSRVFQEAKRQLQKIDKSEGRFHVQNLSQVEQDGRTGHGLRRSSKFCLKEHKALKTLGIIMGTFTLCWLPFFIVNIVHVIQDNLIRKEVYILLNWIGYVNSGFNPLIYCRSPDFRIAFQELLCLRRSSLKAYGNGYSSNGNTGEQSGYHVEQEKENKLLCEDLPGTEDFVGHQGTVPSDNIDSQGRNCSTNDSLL

[16] = molecular target: 3-hydroxy-3-methylglutaryl-coenzyme A reductase (Rattus norvegicus) (UniProt P51639); test: Inhibitor of HMGCOARED in the Eurofins Panlabs screen (BI) by Radioactive Assay; conditions: Compound concentration 30.0 uM
Sequence of 3-hydroxy-3-methylglutaryl-coenzyme A reductase (Rattus norvegicus) (P51639 whole entry): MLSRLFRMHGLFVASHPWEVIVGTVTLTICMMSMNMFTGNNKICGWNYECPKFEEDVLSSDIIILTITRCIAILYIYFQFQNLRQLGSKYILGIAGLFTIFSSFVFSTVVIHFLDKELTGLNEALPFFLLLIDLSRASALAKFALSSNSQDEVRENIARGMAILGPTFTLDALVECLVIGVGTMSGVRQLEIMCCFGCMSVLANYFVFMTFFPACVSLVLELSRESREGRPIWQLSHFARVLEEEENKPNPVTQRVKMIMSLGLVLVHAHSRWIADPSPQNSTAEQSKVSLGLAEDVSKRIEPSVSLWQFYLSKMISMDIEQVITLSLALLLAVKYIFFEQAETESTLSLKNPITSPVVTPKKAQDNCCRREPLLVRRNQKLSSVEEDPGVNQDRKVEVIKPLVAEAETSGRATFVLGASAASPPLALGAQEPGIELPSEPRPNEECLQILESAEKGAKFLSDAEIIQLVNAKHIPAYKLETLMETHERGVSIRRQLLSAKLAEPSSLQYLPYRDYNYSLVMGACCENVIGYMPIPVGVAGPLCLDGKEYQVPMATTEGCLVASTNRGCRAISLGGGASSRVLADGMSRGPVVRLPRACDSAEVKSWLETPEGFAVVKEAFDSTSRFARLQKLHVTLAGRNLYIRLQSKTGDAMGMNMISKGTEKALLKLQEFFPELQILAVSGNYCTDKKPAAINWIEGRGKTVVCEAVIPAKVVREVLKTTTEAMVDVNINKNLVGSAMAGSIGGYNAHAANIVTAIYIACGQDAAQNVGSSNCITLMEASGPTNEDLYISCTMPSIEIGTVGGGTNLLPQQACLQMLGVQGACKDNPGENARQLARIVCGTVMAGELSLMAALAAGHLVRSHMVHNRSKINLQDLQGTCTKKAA

[17] = molecular target: Polyunsaturated fatty acid 5-lipoxygenase (Homo sapiens) (UniProt P09917); test: Activity against 5LO in the Eurofins Panlabs screen (BI) by Radioactive Assay; conditions: Compound concentration 30.0 uM
[18] = molecular target: Prostaglandin G/H synthase 2 (Homo sapiens) (UniProt P35354); test: Inhibitor of COX-2 in the Eurofins Cerep SafetyScreen44 (BI) by Fluorimetry (Cerep_4186); conditions: Compound concentration 10.0 uM
[19] = molecular target: Muscarinic acetylcholine receptor M2 (Homo sapiens) (UniProt P08172); test: M2 Eurofins-Cerep binding assay; set-up: ligand concentration 2 nM; conditions: Compound concentration 10.0 uM
Sequence of Muscarinic acetylcholine receptor M2 (Homo sapiens) (P08172 whole entry): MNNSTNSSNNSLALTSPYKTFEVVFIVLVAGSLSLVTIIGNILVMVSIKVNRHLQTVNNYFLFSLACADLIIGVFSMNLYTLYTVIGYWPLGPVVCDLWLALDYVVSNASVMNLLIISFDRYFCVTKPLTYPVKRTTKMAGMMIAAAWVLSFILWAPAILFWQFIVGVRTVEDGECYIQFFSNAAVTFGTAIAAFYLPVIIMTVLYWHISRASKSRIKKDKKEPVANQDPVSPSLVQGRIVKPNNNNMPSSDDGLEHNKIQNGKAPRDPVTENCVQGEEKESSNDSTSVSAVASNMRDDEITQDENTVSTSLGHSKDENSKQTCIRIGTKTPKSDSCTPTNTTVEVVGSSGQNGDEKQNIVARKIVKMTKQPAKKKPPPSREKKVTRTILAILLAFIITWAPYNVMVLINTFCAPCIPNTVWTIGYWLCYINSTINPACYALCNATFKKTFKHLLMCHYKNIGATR

[20] = molecular target: Calcitonin-gene-related peptide receptor; CALCRL/RAMP1 (Rattus norvegicus) (UniProt Q63118+Q9JJ74); test: Activity against CGRP/R in the Eurofins Panlabs screen (BI) by Radioactive Assay; type: protein-complex assay; conditions: Compound concentration 10.0 uM
[21] = molecular target: Delta-type opioid receptor (Homo sapiens) (UniProt P41143); test: delta (DOP) Eurofins-Cerep binding assay; set-up: ligand concentration 0.5 nM; conditions: Compound concentration 10.0 uM
Sequence of Delta-type opioid receptor (Homo sapiens) (P41143 whole entry): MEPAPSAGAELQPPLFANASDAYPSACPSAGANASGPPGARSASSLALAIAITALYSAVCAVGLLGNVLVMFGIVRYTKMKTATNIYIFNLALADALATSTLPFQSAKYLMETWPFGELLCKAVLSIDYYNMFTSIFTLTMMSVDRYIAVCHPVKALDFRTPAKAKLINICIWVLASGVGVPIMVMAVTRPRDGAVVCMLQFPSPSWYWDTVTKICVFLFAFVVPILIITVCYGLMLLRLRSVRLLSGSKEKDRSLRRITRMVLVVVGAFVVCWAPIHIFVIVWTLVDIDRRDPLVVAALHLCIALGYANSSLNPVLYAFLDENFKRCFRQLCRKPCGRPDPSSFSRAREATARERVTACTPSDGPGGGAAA

hERG (KCNH2) = hERG (KCNH2) (Homo sapiens, UniProt Q12809); test: Inhibitor of HERG_DOFETILIDE in the Eurofins Cerep SafetyScreen44 (BI) by Scintillation counting (Cerep_4094); set-up: scale not given: the % may be the effect or the level left; conditions: probe [3H] dofetilide, compound concentration 10 uM, read-out: % Ctrl
[22] = molecular target: Cannabinoid receptor 2 (Homo sapiens) (UniProt P34972); test: Activity against CB2/PERIPH/H in the Eurofins Cerep SafetyScreen44 (BI) by Radioactive Assay (Cerep_37); conditions: Compound concentration 10.0 uM
[23] = molecular target: Carbonic anhydrase 6 (Homo sapiens) (UniProt P23280); test: Inhibitor of CANHYDRASE in the Eurofins Panlabs screen (BI) by absorption of electromagnetic radiation; conditions: Compound concentration 10.0 uM
[24] = molecular target: Endothelin receptor type B (Rattus norvegicus) (UniProt P21451); test: Activity against ETB/R in the Eurofins Panlabs screen (BI) by Radioactive Assay; conditions: Compound concentration 10.0 uM
[25] = molecular target: Cholecystokinin receptor type A (Rattus norvegicus) (UniProt P30551); test: Activity against CCKA/R in the Eurofins Panlabs screen (BI) by Radioactive Assay; conditions: Compound concentration 10.0 uM
[26] = molecular target: Muscarinic acetylcholine receptor M3 (Homo sapiens) (UniProt P20309); test: M3 Eurofins-Cerep binding assay; set-up: ligand concentration 0.2 nM; conditions: Compound concentration 10.0 uM
Sequence of Muscarinic acetylcholine receptor M3 (Homo sapiens) (P20309 whole entry, looked up): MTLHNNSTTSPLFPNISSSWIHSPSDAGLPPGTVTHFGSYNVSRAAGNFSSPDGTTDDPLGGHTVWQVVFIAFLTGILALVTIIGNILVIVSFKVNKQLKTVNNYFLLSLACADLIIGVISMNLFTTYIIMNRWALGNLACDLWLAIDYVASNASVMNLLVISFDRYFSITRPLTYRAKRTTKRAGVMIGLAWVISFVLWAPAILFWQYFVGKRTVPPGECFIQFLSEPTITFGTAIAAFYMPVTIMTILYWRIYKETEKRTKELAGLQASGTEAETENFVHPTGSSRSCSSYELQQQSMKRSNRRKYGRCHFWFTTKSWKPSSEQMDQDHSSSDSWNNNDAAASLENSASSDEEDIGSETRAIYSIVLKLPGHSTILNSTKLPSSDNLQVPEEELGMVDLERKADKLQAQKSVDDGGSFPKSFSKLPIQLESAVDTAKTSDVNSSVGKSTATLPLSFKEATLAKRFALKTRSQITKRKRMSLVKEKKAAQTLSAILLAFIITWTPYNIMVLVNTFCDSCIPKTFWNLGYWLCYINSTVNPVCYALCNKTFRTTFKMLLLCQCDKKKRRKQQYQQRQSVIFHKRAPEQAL

[27] = molecular target: Glutamate NMDA receptor (Rattus norvegicus) (UniProt P35439+Q00959+Q00960+Q00961+Q62645+Q8VHN2+Q9R1M7); test: Inhibitor of NMDA/R in the Eurofins Cerep SafetyScreen44 (BI) by Radioactive Assay (Cerep_66); type: protein-complex assay; conditions: Compound concentration 10.0 uM
[28] = molecular target: G_PROTEIN_RECEP_F1_2 domain-containing protein (Cavia porcellus) (UniProt A0A286XTF2); test: Activity against DELTA/GP in the Eurofins Panlabs screen (BI) by Radioactive Assay; conditions: Compound concentration 10.0 uM
[29] = molecular target: L-type calcium channel (dihydropyridine site), Cav1.2 alpha-1C (Rattus norvegicus, UniProt P22002); test: Inhibitor of CA+/DHPSI/R in the Eurofins Cerep SafetyScreen44 (BI) by Radioactive Assay (Cerep_161); type: protein assay; set-up: scale not given: the % may be the effect or the level left; conditions: rat brain, probe [3H](+)PN200-110, compound concentration 10 uM, read-out: % Ctrl
[30] = molecular target: Androgen receptor (Homo sapiens) (UniProt P10275); conditions: Compound concentration 10.0 uM
Description: Activity against ANDROGEN/H in the Eurofins Cerep SafetyScreen44 (BI) by Radioactive Assay (Cerep_933)

[31] = molecular target: ATP-sensitive inward rectifier potassium channel 1 isoform X1 (Mesocricetus auratus) (UniProt A0A1U8CU73); test: Activity against K+/KATP/HA in the Eurofins Panlabs screen (BI) by Radioactive Assay; conditions: Compound concentration 10.0 uM
[32] = molecular target: Adenosine receptor A2a (Rattus norvegicus) (UniProt P30543); test: Activity against A2A/R in the Eurofins Panlabs screen (BI) by Radioactive Assay; conditions: Compound concentration 10.0 uM
[33] = molecular target: Tyrosine-protein kinase Lck (Homo sapiens) (UniProt P06239); test: Inhibitor of LCK_CE in the Eurofins Cerep SafetyScreen44 (BI) by lanthanide chelation excitation (Cerep_2906); conditions: Compound concentration 10.0 uM

SMILES: N=C(N)NCCC[C@@H](NC(=O)C(c1ccccc1)c1ccccc1)C(=O)NCc1ccc(CNC(N)=O)cc1
- residual activity [1]: 95%
- residual activity [2]: 71%
- residual activity [3]: 91%
- residual activity [4]: 87%
- residual activity [5]: 40%
- residual activity [6]: 95%
- residual activity [7]: 84%
- residual activity [8]: 107%
- residual activity [9]: 102%
- residual activity [10]: 80%
- residual activity [11]: 117%
- residual activity [12]: 96%
- residual activity [13]: 98%
- residual activity [14]: 102%
- residual activity [15]: 108%
- residual activity [16]: 98%
- residual activity [17]: 97%
- residual activity [18]: 61%
- residual activity [19]: 90%
- residual activity [20]: 92%
- residual activity [21]: 80%
- activity at 10 µM (hERG (KCNH2)): 79% (not active)
- residual activity [22]: 91%
- residual activity [23]: 96%
- residual activity [24]: 98%
- residual activity [25]: 87%
- residual activity [26]: 87%
- residual activity [27]: 109%
- residual activity [28]: 80%
- activity at 10 µM [29]: 70% (not active)
- residual activity [30]: 91%
- residual activity [31]: 76%
- residual activity [32]: 97%
- residual activity [33]: 86%
